Molecules are shown by their SMILES. Counter-ions that a name gives are not always drawn.

By melting point is commonly meant the temperature, or range, at which the solid turns liquid. `CN1CCN(c2cccc3ccc(OC(=O)c4ccc(Cl)cc4)cc23)CC1` [Example 53, 7-(4-Chlorobenzoyloxy)-1-(4-methyl-1-piperazinyl)-naphthalene]: the melting point lay within 110 to 111 °C.

In turn, `CN1CCN(c2cccc3ccc(Nc4nc(Cc5ccccc5)cs4)cc23)CC1` [Example 24, 4-Benzyl-2-[-1-(4-methyl-1-piperazinyl)-7-naphthylamino]-thiazole] gave a melting point of 157 to 160 °C.

`CN1CCN(c2cccc3ccc(OCc4ccc(Cl)cc4)cc23)CC1` [Example 40, 7-(4-Chlorobenzyloxy)-1-(4-methyl-1-piperazinyl)-naphthalene] registered a melting point of 111.5 to 112 °C.

Regarding `CN1CCN(c2cccc3ccc(NC(=O)c4cc([N+](=O)[O-])cc([N+](=O)[O-])c4)cc23)CC1`, the melting point is 254 to 256 °C. In the case of `CN1CCN(c2cccc3ccc(OCc4ccc(Cl)c(Cl)c4)cc23)CC1` [Example 50, 7-(3,4-Dichlorobenzyloxy)-1-(4-methyl-1-piperazinyl)-naphthalene], the melting point is 113 to 114 °C.

Compound `CN1CCN(c2cccc3ccc(NCc4cccc5ccccc45)cc23)CC1` [Example 13, 7-(1-Naphthylmethylamino)-1-(4-methyl-1-piperazinyl)-naphthalene] returned a melting point of 140 to 141 °C. Compound `O=C(Nc1ccc2cccc(N3CCNCC3)c2c1)c1ccccc1` came in with a melting point of 141.5 to 144 °C. The value for `CN1CCN(c2cccc3ccc(OCc4ccccc4)cc23)CC1` [Example 49, 7-(Benzyloxy)-1-(4-methyl-1-piperazinyl)-naphthalene] was 81.5 to 82.5 °C; that for `CN1CCCC(c2cccc3ccc(NC(=O)c4ccccc4)cc23)C1` (stereo not drawn) (as salt: HCl) [Example 64, 7-Benzamido-1-(1-methyl-3-piperidinyl)-naphthalene] was 140 to 170 °C. Compound `CCN1CCN(c2cccc3ccc(NC(=O)c4ccc(Cl)cc4)cc23)CC1` [Example 67, 7-(4-Chlorobenzamido)-1-(4-ethyl-1-piperazinyl)-naphthalene] displayed a melting point of 173 to 174.5 °C. To `CN1CCN(c2cccc3ccc(OCc4ccc(C(F)(F)F)cc4)cc23)CC1` (as salt: hydrochloride) [Example 51, 7-(4-Trifluoromethylbenzyloxy)-1-(4-methyl-1-piperazinyl)-naphthalene] belongs 205 to 206 °C. To `c1cc(N2CCNCC2)c2cc(-n3nnc4ncccc43)ccc2c1` (as salt: hydrochloride) belongs greater than 250 °C; to `CN1CCCC(c2cccc3ccc(-n4cnc5ncccc54)cc23)C1` (stereo not drawn) (as salt: HCl) [Example 63, 7-(Imidazolo[4,5-b]pyridin-1-yl)-1-(1-methyl-3-piperidinyl)-naphthalene], greater than 250 °C. In the case of `CCCCCC(=O)Nc1ccc2cccc(N3CCN(C)CC3)c2c1` [Example 17, 7-Hexanamido-1-(4-methyl-1-piperazinyl)-naphthalene], the melting point was 144 to 146 °C. `CN1CCN(c2cccc3ccc(NC(=O)c4ccccc4)cc23)CC1` [Example 1, 7-Benzamido-1-(4-methyl-1-piperazinyl)-naphthalene] came in with a melting point of 173 to 175 °C.

Regarding `CN1CCN(c2cccc3ccc(OC(=O)c4ccccc4)cc23)CC1` [Example 52, 7-Benzoyloxy-1-(4-methyl-1-piperazinyl)-naphthalene], the melting point was 82 to 82.5 °C.

The compound `CN1CCN(c2cccc3ccc(Nc4ccccc4[N+](=O)[O-])cc23)CC1` [Example 28, 7-(2-Nitrophenylamino)-1-(4-methyl-1-piperazinyl)-naphthalene] returned a melting point of 87 to 94 °C.

`CN1CCN(c2cccc3ccc(C(O)(c4ccccc4)c4ccccc4)cc23)CC1` [Example 45, 7-(Diphenylhydroxymethyl)-1-(4-methyl-1-piperazinyl)-naphthalene] returned a melting point of 217.5 to 218.5 °C.

The values above are taken from US20050080090A1, “Naphthalene derivatives” (priority 1993, published 2005).
